Experimental data: US20090130194A1, “Methods of Treating Cancer with High Potency Lipid-Based Platinum Compound Formulations Administered Intravenously” (Transave, Inc., priority 2005, published 2009)

Key:
[1] = Pharmacokinetics and organ distribution of ip and iv injected L-CDDP and CDDP (platinum by ICP-MS); assay type: in vivo, ICR mice; settings: 8 mg/kg
Protocol: Pharmacokinetics and organ distribution in animals of ip and iv injected lipid-complexed cisplatin and cisplatin (Part II). Sixty ICR mice (female, 7 weeks old) were divided into 4 groups. They received intraperitoneal or intravenous injection of L-CDDP or CDDP, separately. The dose was 12 mg/kg for ip L-CDDP and 8 mg/kg for the rest of treatment groups. At each designed time point, three to four mice were anaesthetized with 70 mg/kg of Nembutal ip (e.g., 3, 20, and 40 min, and 2, 8, 24, 48, and 72 h). […] Organs including liver, lung, and spleen were resected from the mice. The organ samples were homogenized in distilled water (4-fold of the sample weight) and digested with nitric acid. The platinum concentration in each sample was measured by Inductively Coupled Plasma-Mass Spectrometer (ICP-MS). The pharmacokinetics profiles (FIGS. 4, 5, and 6, all Y-axes are concentration of μg platinum in one gram of tissue or fluid per mg of injected dose) and parameters (Table 2) of each formulation were simulated and calculated.

[2] = Nephrotoxicity: blood urea nitrogen (BUN); assay type: in vivo; settings: MTD
Text: Nephrotoxicity. ICR mice, 7 weeks old, female, were divided into 4 groups with 3 to 4 mice in each. […] Four days after the injection, the mice were euthanized with Nembutal ip. The blood was drawn and the serum was isolated. The blood urea nitrogen (BUN) was quantitatively measured with a calorimetric method at Antech Diagnostics. Organs including duodenum, heart, kidney, liver, lung, and spleen were resected from the mice and fixed with 10% buffered Formalin. The fixed tissues were processed with standard procedure for H and E staining. A pathology expert Dr. Carman Tornos at the Memorial Sloan-Kettering Cancer Center examined kidney tissues and gave a toxicity grade to each kidney tissue sample. The grading was based on the general pathology guidelines for kidney toxicity.

## N.N.[Cl][Pt][Cl] [CDDP, cis diamminedichloroplatinum]
[1]
  AUC, Liver: 19.96 µg·h/g/µg
  AUC, Lung: 5.58 µg·h/g/µg
  AUC, Spleen: 8.11 µg·h/g/µg
  Cmax, Liver: 0.74 µg/g/µg
  Cmax, Lung: 0.28 µg/g/µg
[2]; either route
  BUN level change (in words): increase
[2]; ip, 4 days after injection, p=0.04
  BUN level increase compared with normal controls: 2.1 fold
